This note sets out measurements from a melting point compilation (Tetko et al.; mined from patent text by program, amines drawn as free bases though some values may be those of a salt).

Consider `Cn1ncc2cc3ncc(-c4ccc(Cl)s4)nc3cc21`, for which the melting point was 225 to 227 °C.
Consider `COc1nc(C)cnc1NS(=O)(=O)c1cnccc1-c1ccc(CC(C)C)cc1`, for which the melting point was in the range of 232 to 233 °C.
For `COC(=O)c1cc2scc(Br)c2nc1C(=O)OC` the value was 165 to 168 °C; for `CCCc1c(OCCCCCC(=O)c2cc(OC)c(OC)cc2F)ccc(C(=O)OC)c1O`, 127 to 129 °C.
For `Cc1oc(C=Cc2cccc(Cl)c2)nc1C(=O)O` the value was 213 to 214 °C; for `CCCCCCCCCN1C(=O)c2ccc3c4cccc5cccc(c6ccc(c2c36)C1=O)c54`, 201 °C.
For `CCCCc1ccc(NC(=O)Nc2ccc(S(N)(=O)=O)cc2)cc1` the value was 243 to 245 °C; for `N#CC(NCc1cccnc1)c1ccoc1` (stereo unspecified), 80 to 82 °C; for `COc1ccc(CN(C)CCCOc2ccc(NC(=O)c3cccc4c(=O)c5cccc(F)c5[nH]c34)c(C)c2)cc1OC`, 130 °C.
On to `COc1cc(Br)c(OC)c(C(N)=O)c1`, for which the melting point lay within 222 to 225 °C.
For `Fc1ccccc1-c1nc2c(s1)NCCCC2` the value was 115 to 116 °C; for `COC(=O)COc1ccc(NC(=O)CCCCCOCc2ccccc2)cc1`, 64.6 to 67 °C.
For `COc1ccc([N+](=O)[O-])c(Oc2cc(C)[nH]n2)n1` the value was 133 to 136 °C; for `Cc1ccc2c(c1)[C@H](Nc1ncnc(NC(=O)C(F)(F)F)n1)[C@@H](C)C2`, 55 to 58 °C.
The compound `CC1(c2ccccc2)CC(=O)N(c2ccncc2)C1=O` (stereo unspecified) registered a melting point of 90 to 92 °C.
For `OC1c2ccccc2COc2ccc(-c3nnn[nH]3)cc21` (stereo unspecified) the value was 335 °C; for `CN1C(=O)C(c2ccc(OC(F)F)cc2)(c2cccnc2)N=C1N` (stereo unspecified), 173 to 175 °C; for `Cc1ccc(S(=O)(=O)NC[C@@H]2C[C@@H](S)CN2S(=O)(=O)c2ccc3ccccc3c2)cc1`, 175 °C.
For `O=C(O)Cn1c(=O)c(=O)[nH]c2cc(Br)ccc21` the value was greater than 320 °C; for `Cc1ccc2cccc(OCc3c(Cl)ccc([N+](=O)[O-])c3C#N)c2n1`, 212 to 215 °C; for `Cc1cc(C)c(C=O)c(-c2ccc(Cl)c(Cl)c2)c1`, 80 to 81 °C.
`C[Si](C)(C)c1ccc(N)cc1` gave a melting point of 123 to 124 °C.
The compound `COc1ccc(C(=O)Nc2c(Cl)cncc2Cl)c2c1oc1ccc(C(F)(F)F)cc12` registered a melting point of 298 °C.
`CC(N)C(N)CC(=O)c1ccccc1` (stereo unspecified) returned a melting point of 106 to 107 °C.
For `CCOC(=O)c1nc2n(c(=O)c1OCc1ccccc1)CCCC2` the value was 151 °C; for `O=C(O)CCCCCNC(=O)c1ccc(NC(=O)c2ccccc2O)cc1`, 201 to 203 °C; for `NCc1cc(-c2ccc(Cl)cc2)no1`, 81 °C.
For `CCCCCCCCCCCCOS(=O)(=O)O` the value was 72 °C.
For `CCC(CC)Oc1nc(C)nc(Cc2c(C)cc(C)cc2C)c1C` the value was 82 to 84 °C; for `CC(=O)Nc1ccc(OC(C)=O)c(C(=O)Nc2cccc3[nH]ccc23)c1`, 263 °C; for `CC(C)n1nc(-c2sc(NC(=O)NCc3ccccc3)nc2-c2ccccc2)ccc1=O`, 200 to 201 °C.
The compound `CS(=O)(=O)c1ccc(-c2c(-c3ccccc3)noc2C(F)F)cc1` had a melting point of 126 to 128 °C.
For `Cc1ccc(C(=O)NCC(N)=O)cc1-n1c(C)cc(OCc2ccccc2CNC(=O)Nc2cc(C(C)(C)C)nn2-c2ccc(O)c(Cl)c2)c(Cl)c1=O` the value was 228 to 230 °C; for `Cc1cc(=O)n(-c2ccc(Cl)cc2F)c(=O)n1C`, 145 °C.
For `CSc1ccc2nc(N)c(C(N)=O)cc2c1` the value was 229 to 242 °C.
For `N#CC1(c2ccncc2)CCCCC1` the value was 79 °C.
In the case of `COc1ccc([C@@H]2C=C[C@H](C(=O)O)n3c(=O)n(CCCl)c(=O)n32)cc1` (relative stereo), the melting point lay in the range of 158 to 161 °C.
`CC1(C)COC(c2ccccc2-c2ccc(C(=O)O)cc2)=N1`: the melting point lay within 190 to 193 °C.
For `O=C(O)CCc1nn(-c2ccc(F)cc2)c2c1CCCC2` the value was 128 to 129 °C.
For `O=Cc1nn(-c2ccc(O)cc2)c2c1CCCC2Cc1cccc2ccccc12` (stereo unspecified) the value was greater than 260 °C; for `CC(C)C(c1ccc(N)cc1)c1cccnc1` (stereo unspecified), 102 °C; for `Cc1[nH]c(/C=C2\C(=O)Nc3cc(NC(=O)c4c[nH]cc(-c5ccc(F)cc5)c4=O)ccc32)c(C)c1CC(=O)N1CCOCC1`, 235 °C.
For `CS(=O)(=O)c1ccc(-n2nc(C(F)(F)F)cc2-c2nc3cc(F)ccc3s2)cc1` the value was 204 to 205 °C.
On to `N#Cc1c(N2CCc3ccccc3CC2)[nH]c(=O)[nH]c1=O`, for which the melting point lay in the range of 183 to 186 °C.
For `Fc1cccc2nc(S)oc12` the value was 232 to 234 °C; for `Cc1cc(C)n(C)c1C(=O)c1ccc(Cl)cc1`, 94 to 98 °C.
As for `CCOC(=O)c1cccc(NC(=O)c2ccc(OC)c(N)c2)c1`, the melting point was in the range of 144 to 146 °C.
For `CC(CC(=O)O)NC(=O)c1ccccc1` (stereo unspecified) the value was 150 to 152 °C.
For `CNC(=O)c1cccc(I)c1` the value was 94 to 97 °C.
For `CCNCC1CCN(c2c(F)cc3c(=O)c(C(=O)O)cn(C4(C)CC4)c3c2F)C1` (stereo unspecified) the value was 261 to 263 °C.
Compound `COc1ccc2c(O)c(C(C)C)cc(Br)c2c1` gave a melting point of 81.5 to 83.5 °C.
For `NS(=O)(=O)c1c(Cl)cccc1CN1CCOC1=O` the value was 200 to 201 °C; for `COC(=O)CC(c1ccc(C)cc1)N1C(=O)c2ccccc2C1=O` (stereo unspecified), 97 to 99 °C.
For `O=C1Cn2ncnc2-c2ccccc2N1` the value was 223 °C; for `N#Cc1c(F)ccc(OCc2nc3cc(Cl)ccc3s2)c1F`, 145 to 147 °C; for `COC(=O)[C@@H](N)CCc1nnnn1CC(=O)N[C@H](C)C(=O)OC`, 87 to 89 °C.
For `O=C(NCCOc1cccc2c1OCC(CO)O2)c1ccc(F)cc1` (stereo unspecified) the value was 124 °C; for `CN(C(=O)c1ccc2nonc2c1)C1CCC1`, 51 to 52 °C; for `COC(=O)C(Cc1cc(Br)c(S(=O)(=O)c2ccc(OC)c(C(C)C)c2)c(Br)c1)C(=O)OC`, 121 to 123 °C.
In turn, `CCOC(=O)c1cc2c3n(ccc-2n1)CC(C(OCC)OCC)=N3` showed a melting point of 242 to 244 °C.
Compound `O=C(NCCCCC(NC(=O)OCC1c2ccccc2-c2ccccc21)C(=O)Oc1c(F)c(F)c(F)c(F)c1F)OCC1c2ccccc2Oc2ccccc21` (stereo unspecified) registered a melting point of 150 to 152 °C.
For `CCc1ncnc2cc(O)c(OC)cc12` the value was 210 to 215 °C; for `CCCCc1oc2ccccc2c1C(=O)NCc1ccc2c(-c3ccc(Cl)cc3)c(OC(Cc3ccccc3)C(=O)O)ccc2c1` (stereo unspecified), 169 to 172 °C.
For `O=C(NC(=O)c1c(F)cccc1F)Nc1cc(Cl)cc(C(F)(F)F)c1Cl` the value was 205 to 208 °C.
With `Cc1ccc2c(c1)CCCN2CC(NS(=O)(=O)c1c(Cl)cc(Cl)cc1Cl)C(C)C` (stereo unspecified), the melting point fell in the range of 144 to 145 °C.
`COc1cc(CCc2cnc(N)nc2N)cc(OC)c1OC` yielded a melting point of 155 to 157 °C.
In turn, `CC(C)(C)OC(=O)N1CCC2(Cc3cc4ccccc4n3C2)C1` (stereo unspecified) registered a melting point of 104 to 106 °C.
For `CCCOc1ccc(/C=C/c2cc(OC)c(OC)c(OC)c2)cc1` the value was 82 to 83 °C.
The compound `Cc1cc(C(=O)N2Cc3ccc(C(=O)N(C)C[C@@H]4OC(=O)O[C@H]4[C@H](O)[C@H]4COC(=O)O4)n3Cc3ccccc32)ccc1C1=CCCCC1` came in with a melting point of 162 to 168 °C.
For `Cc1cc(-n2ccnc2)c2cccc(OCc3c(Cl)ccc(S(=O)(=O)N4CCC[C@H]4C(=O)NCCCN4CCCC4)c3Cl)c2n1` the value was 120 °C.
For `O=C1c2ccccc2C(=O)c2c1oc1cc(O)ccc21` the value was greater than 310 °C.
For `CN(C)CC#Cc1cc(CN2CCOCC2)cc2c(=O)c(C(=O)NCc3ccc(Cl)cc3)cn(C)c12` the value was 154 to 157 °C.
Compound `Cn1c(Cc2c(F)cccc2F)nnc1C(N)=O` had a melting point of 189 to 190 °C.
For `COc1cccc(/C=C/C(=O)Nc2cccc(NC(=N)c3ccccc3)c2)c1` the value was 148 to 149 °C.
For `O=C(O)Cc1ccc(-n2cc(Cl)cn2)c(Cl)c1` the value was 132 to 133 °C; for `O=C1c2ccccc2C(=S)N1C1CC=CCC1` (stereo unspecified), 93 °C.
For `O=C(O)c1ccc(C(=O)NCCc2ccccc2)cc1` the value was 237 to 238 °C.
Consider `CC(=O)Nc1c(N)cc(Br)cc1OCc1ccccc1`, for which the melting point was 185 °C.
For `C=C(CC(Cl)(Cl)Cl)c1cc(Cl)nc(Cl)c1` the value was 82 to 83 °C; for `CCCCCCc1ccc(-c2ccc(-c3ccc(-c4ccc(-c5ccc(-c6ccc(CCCCCC)o6)o5)o4)o3)o2)o1`, 261 °C.
For `O=C(/C=C/c1ccc(C(F)(F)F)cc1-c1cccnc1)Nc1cnc2ccccc2c1` the value was 196 to 199 °C; for `Oc1cc(F)cc(C2(O)CCOCC2)c1`, 158 to 160 °C.
`CCOC(=O)/C=C/c1cn(Cc2ccc(OCc3csc(-c4ccccc4)n3)cc2)nc1-c1cccs1` returned a melting point of 104 to 105 °C.
In turn, `CN(C)Cc1ccc(CSCCNc2ncc(-c3ccccc3)c(=O)[nH]2)o1` gave a melting point of 116 to 118 °C.
In the case of `Cc1sc(C#N)c2c1C(=O)CC(C)(C)C2`, the melting point is 73 to 75 °C.
For `CSc1nn2c(N)cc(C)nc2c1S(=O)(=O)c1ccc(Cl)cc1` the value was greater than 230 °C.
Turning to `COC(=O)c1ccc(CN2CCOc3cc4c(cc32)C(C)(C)CCC4(C)C)cc1`, the melting point was determined as 187 °C.
For `CCCCCc1ccc(-c2ccc(C3CC(CCCCC)C(=O)O3)cc2)cc1` (stereo unspecified) the value was 86.2 to 88.4 °C.
The compound `CON(C)C(=O)c1ccc(-c2ccc(C)cc2)o1` registered a melting point of 54 to 58 °C.
For `Cc1nn(C2CCCCC2)c(N)c1C(N)=O` the value was 181 to 182 °C; for `N=C(NO)c1nc(-c2ccc(C(F)(F)F)cc2)cc(C(F)(F)F)n1`, 224 °C.

As a reminder, the melting point is the temperature of the solid-liquid transition.
